Experimental data from ChEMBL document CHEMBL6092162, “Identification of novel and potent triazoles targeting CYP51 for antifungal: Design, synthesis, and biological study” (Eur J Med Chem, 2024).
≈ marks a conversion by molar mass, not a printed value. Calls of active or inactive are those of the source. No cut-off for these calls is given here.

Columns and labels:
Candida albicans [1] = experiment: Antibiofilm activity against fluconazole-resistant Candida albicans CPCC400616 assessed as inhibition of metabolic activity of biofilm measured after 24 hrs by XTT reduction assay; type: functional
Candida albicans [2] = experiment: Antifungal activity against fluconazole-resistant Candida albicans clinical isolate 311 assessed as inhibition of fungal growth by CLSI M27-A3 guidelines based method; type: functional
Candida albicans [3] = experiment: Antifungal activity against fluconazole and iodiconazole resistant Candida albicans clinical isolate 17# assessed as inhibition of fungal growth by CLSI M27-A3 guidelines based method; type: functional
Candida albicans [4] = experiment: Fungicidal activity against Candida albicans SC5314 incubated for 48 hrs by SDA plate based method; type: functional
Candida albicans [5] = experiment: Antifungal activity against fluconazole-resistant Candida albicans clinical isolate 632 assessed as inhibition of fungal growth by CLSI M27-A3 guidelines based method; type: functional
Candida albicans [6] = experiment: Antibiofilm activity against fluconazole-resistant Candida albicans CPCC400616 assessed as inhibition of metabolic activity of biofilm measured after 48 hrs by XTT reduction assay; type: functional
Candida albicans [7] = experiment: Antifungal activity against Candida albicans SC5314 assessed as inhibition of fungal growth by CLSI M27-A3 guidelines based method; type: functional
[8] = Cytotoxicity against HEK293T cells assessed as inhibition of cell growth incubated for 72 hrs by MTT assay; type: toxicity, cell-based, HEK-293T; details: human
Cryptococcus neoformans = experiment: Antifungal activity against Cryptococcus neoformans CGMCC 2.3161 assessed as inhibition of fungal growth by CLSI M27-A3 guidelines based method; type: functional
Pichia kudriavzevii = experiment: Antifungal activity against Candida krusei GIM 2.1 assessed as inhibition of fungal growth by CLSI M27-A3 guidelines based method; type: functional
Candida albicans [9] = experiment: Antibiofilm activity against fluconazole-resistant Candida albicans CPCC400616 assessed as inhibition of metabolic activity of biofilm measured after 6 hrs by XTT reduction assay; type: functional
Candida albicans [10] = experiment: Antifungal activity against fluconazole-resistant Candida albicans clinical isolate 103 assessed as inhibition of fungal growth by CLSI M27-A3 guidelines based method; type: functional
Candida albicans [11] = experiment: Antibiofilm activity against Candida albicans CPCC400616 assessed as inhibition of morphological transformation by measuring disappearance of mycelium at 2 microg/ml incubated for 4 hrs by microscopic photograph analysis; type: functional, organism-based; details: dose 2.0 µg/ml
Candida albicans [12] = experiment: Antifungal activity against Candida albicans GIM 2.194 assessed as inhibition of fungal growth by CLSI M27-A3 guidelines based method; type: functional
Candida albicans [13] = experiment: Fungicidal activity against fluconazole and iodiconazole resistant Candida albicans clinical isolate 17# incubated for 48 hrs by SDA plate based method; type: functional
Candida tropicalis = experiment: Antifungal activity against Candida tropicalis GIM 2.183 assessed as inhibition of fungal growth by CLSI M27-A3 guidelines based method; type: functional
Nakaseomyces glabratus = experiment: Antifungal activity against Candida glabrata assessed as inhibition of fungal growth by CLSI M27-A3 guidelines based method; type: functional
Candida albicans [14] = experiment: Effect on sterol composition in Candida albicans SC5314 assessed as ergosterol content at 1 microg/ml measured after 16 hrs by GC-MS analysis (reference value: 96.96 %); type: functional; details: dose 1 µg/ml
Candida albicans [15] = experiment: Antifungal activity against fluconazole-resistant Candida albicans CaR assessed as inhibition of fungal growth by CLSI M27-A3 guidelines based method; type: functional
Candida parapsilosis = experiment: Antifungal activity against Candida parapsilosis GIM 2.190 assessed as inhibition of fungal growth by CLSI M27-A3 guidelines based method; type: functional; details: Lodderomyces parapsilosis
Candida albicans [16] = experiment: Antifungal activity against fluconazole-resistant Candida albicans clinical isolate 100 assessed as inhibition of fungal growth by CLSI M27-A3 guidelines based method; type: functional
Candida albicans [17] = experiment: Effect on sterol composition in Candida albicans SC5314 assessed as 14alpha-demethyllanosterol content at 1 microg/ml measured after 16 hrs by GC-MS analysis (reference value: 1.98 %); type: functional; details: dose 1 µg/ml
Candida albicans [18] = experiment: Effect on sterol composition in Candida albicans SC5314 assessed as obtusifoliol content at 1 microg/ml measured after 16 hrs by GC-MS analysis relative to control; type: functional; details: dose 1 µg/ml
Candida albicans [19] = experiment: Antifungal activity against fluconazole-resistant Candida albicans clinical isolate 904 assessed as inhibition of fungal growth by CLSI M27-A3 guidelines based method; type: functional
[20] = Cytotoxicity against human OVCAR-3 cells assessed as inhibition of cell growth incubated for 72 hrs by MTT assay; type: toxicity, cell-based
Candida albicans [21] = experiment: Effect on sterol composition in Candida albicans SC5314 assessed as eburicol content at 1 microg/ml measured after 16 hrs by GC-MS analysis relative to control; type: functional; details: dose 1 µg/ml
Candida albicans [22] = experiment: Antifungal activity against fluconazole-resistant Candida albicans clinical isolate 901 assessed as inhibition of fungal growth by CLSI M27-A3 guidelines based method; type: functional
Candida albicans [23] = experiment: Effect on sterol composition in Candida albicans SC5314 assessed as other sterols content at 1 microg/ml measured after 16 hrs by GC-MS analysis (reference value: 1.06 %); type: functional; details: dose 1 µg/ml
[24] = Cytotoxicity against human NCI-H460 cells assessed as inhibition of cell growth incubated for 72 hrs by MTT assay; type: toxicity, cell-based
Candida albicans [25] = experiment: Effect on sterol composition in Candida albicans SC5314 assessed as lanosterol content at 1 microg/ml measured after 16 hrs by GC-MS analysis relative to control; type: functional; details: dose 1 µg/ml
[26] = Cytotoxicity against HUVEC cells assessed as inhibition of cell growth incubated for 72 hrs by MTT assay; type: toxicity, cell-based; details: human
Candida albicans [27] = experiment: Selectivity ratio of MFC for fungicidal activity against Candida albicans SC5314 to MIC80 for antifungal activity against Candida albicans SC5314; type: functional
Candida albicans [28] = experiment: Selectivity ratio of MFC for fungicidal activity against fluconazole and iodiconazole resistant Candida albicans clinical isolate 17# to MIC80 for antifungal activity against fluconazole and iodiconazole resistant Candida albicans clinical isolate 17#; type: functional

SMILES | MIC50 (Candida albicans [1]) [µg/mL] | MIC80 (Candida albicans [2]) [µg/mL] | MIC80 (Candida albicans [3]) [µg/mL] | MFC (Candida albicans [4]) [µg/mL] | MIC80 (Candida albicans [5]) [µg/mL] | MIC50 (Candida albicans [6]) [µg/mL] | MIC80 (Candida albicans [7]) [µg/mL] | IC50 at 72 h [8] [µM] | MIC80 (Cryptococcus neoformans) [µg/mL] | MIC80 (Pichia kudriavzevii) [µg/mL] | MIC50 (Candida albicans [9]) [µg/mL] | MIC80 (Candida albicans [10]) [µg/mL] | Activity (Candida albicans [11]) | MIC80 (Candida albicans [12]) [µg/mL] | MFC (Candida albicans [13]) [µg/mL] | MIC80 (Candida tropicalis) [µg/mL] | MIC80 (Nakaseomyces glabratus) [µg/mL] | MIC80 (Candida albicans [15]) [µg/mL] | MIC80 (Candida parapsilosis) [µg/mL] | MIC80 (Candida albicans [16]) [µg/mL] | also measured
OC(Cn1cncn1)(Cn1cncn1)c1ccc(F)cc1F [FLUCONAZOLE] | > 32 | > 64 | > 64 | > 64 | > 64 | > 32 | 0.25 (≈ 0.816 µM) | > 40 | 4 (≈ 13.1 µM) | 8 (≈ 26.1 µM) | 16 (≈ 52.2 µM) | > 64 | Not active; Oval Shaped Yeast Phase Fungi Observed | 0.5 (≈ 1.63 µM) | > 64 | 0.25 (≈ 0.816 µM) | 8 (≈ 26.1 µM) | > 64 | 1 (≈ 3.27 µM) | > 64 | Activity (Candida albicans [14]): 4.57%; Activity (Candida albicans [17]): 3.03%; Activity (Candida albicans [18]): 14.37%; MIC80 (Candida albicans [19]): > 64 µg/mL; IC50 at 72 h [20]: > 40 µM; Activity (Candida albicans [21]): 60.09%; MIC80 (Candida albicans [22]): > 64 µg/mL; Activity (Candida albicans [23]): 8.64%; IC50 at 72 h [24]: > 40 µM; Activity (Candida albicans [25]): 9.3%; IC50 at 72 h [26]: > 40 µM
CN(Cc1ccc(I)cc1)CC(O)(Cn1cncn1)c1ccc(F)cc1F (stereo not drawn) | 16 (≈ 33 µM) | > 64 | 0.25 (≈ 0.516 µM) | 32 (≈ 66.1 µM) | 16 (≈ 33 µM) | > 32 | 0.013 (≈ 0.0268 µM) | > 10 | 0.1 (≈ 0.206 µM) | 0.2 (≈ 0.413 µM) | 8 (≈ 16.5 µM) | 32 (≈ 66.1 µM) | Active | 0.025 (≈ 0.0516 µM) | 32 (≈ 66.1 µM) | 0.013 (≈ 0.0268 µM) | 0.2 (≈ 0.413 µM) | 2 (≈ 4.13 µM) | 0.025 (≈ 0.0516 µM) | 2 (≈ 4.13 µM) | Selectivity ratio (Candida albicans [27]): >256; MIC80 (Candida albicans [19]): 8 µg/mL (≈ 16.5 µM); IC50 at 72 h [20]: > 10 µM; MIC80 (Candida albicans [22]): > 64 µg/mL; IC50 at 72 h [24]: > 10 µM; Selectivity ratio (Candida albicans [28]): 128; IC50 at 72 h [26]: > 10 µM
